The values below come from publication PMC3914891, “Pentacyclic Nitrofurans with In Vivo Efficacy and Activity against Nonreplicating Mycobacterium tuberculosis” (PLoS ONE, 2014).

Converted amounts (≈) assume the structure as drawn.

The subject of series [1] is Stenotrophomonas maltophilia (ATCC 13637). Put plainly: MIC, spectrum of activity: S.m. The series is classed as cell-based. The conditions noted are these: ATCC13637, read-out: Minimum Inhibitory Concentration, S.m.
For series [2], the system named is M. kansasii (ATCC 12478). The series can be described thus: MIC, non-tuberculosis mycobacteria: M. kansasii. The series is classed as cell-based. The conditions noted are these: Mycobacterium kansasii, ATCC12478, 168 h; broth dilution, visual inspection, 7 days; read-out: Minimum Inhibitory Concentration, M. kansasii. A general note: Broth dilution looks for growth in wells or tubes with falling amounts of substance.

Series [3] in a line: In vitro cytotoxicity against Vero cells. The conditions noted are these: African green monkey, Vero cells (kidney epithelial cells, ATCC CCL-81).

In general, IC50 refers to the point on the concentration scale where inhibition reaches its midpoint.

For the molecule `O=[N+]([O-])c1ccc(C2=NOC(c3ccc(N4CCC(Oc5ccc(OC(F)(F)F)cc5)CC4)cc3)C2)o1` (stereo not drawn) [Compound 9a, 3-(5-Nitrofuran-2-yl)-5-(4-(4-(4-(trifluoromethoxy)phenoxy)piperidin-1-yl)phenyl)-4,5-dihydroisoxazole], the MIC is 25 µg/mL (≈ 48.3 µM) in series [1] and 3.13 to 6.25 µg/mL (≈ 6.05 to 12.1 µM) in series [2]. In series [3], this molecule showed an IC50 of 19.4 µg/mL (≈ 37.5 µM).
